Reference: patent US20230219986A1, “NOVEL AMINOPYRIMIDINE EGFR INHIBITOR” (QILU PHARMACEUTICAL CO., LTD., priority 2020, published 2023)
Marks after values point to notes of the source that are not given here.

Experiments:
[1] = system: PC9 (De119/T790M/C797S) nude mice xenograft model; assay: In vivo efficacy research experiment B (compound 243); design: species or system BALB/c-nu mice; details: for Tumor volume (mean ± standard error): PC9 (De119/T790M/C797S) xenograft
Procedure: To evaluate the antitumor activity and toxic side effects of compound 243 orally administered for 21 days in PC9 (De119/T790M/C797S) nude mice xenograft model.
(§1) BALB/c-nu mice, female, SPF grade, purchased from Beijing Vital River Laboratory Animal Technology Co., Ltd.
(§2) PC9 (De119/T790M/C797S) cells, constructed by Qilu Pharmaceutical Co., Ltd.
(§3) PC9 (De119/T790M/C797S) cells were cultured in RPMI 1640 medium containing 10% FBS at 37° C. in a 5% carbon dioxide incubator; cells in exponential growth phase were collected and inoculated.
Under sterile conditions, PC9 (De119/T790M/C797S) cell suspension cultured in vitro was taken, the cell concentration was adjusted to 3×10^7 cells/mL after centrifugation, and subcutaneously inoculated under the right armpit of mice (0.1 mL/ mouse). The day of inoculation was set as day 0.
a, When the average tumor volume was about 140 mm^3, 21 mice with moderate tumor volume were selected and randomly divided into […] according to the tumor volume: G1: solvent control group, G2: compound 243 (15 mg/kg) and G3: compound 243 (40 mg/kg), 7 mice/group.
(§4) b, After animals were grouped, administration was started, and the administration volume was 10 mL/kg, administered orally (po); administered by weight once a day for 21 consecutive days; tumor diameter was measured twice a week.
(§5) c, Tumor volume (TV): the tumor volume was measured twice a week to observe the volume change and growth rate of the tumor. Tumor volume V=½×a×b^2, where a and b represent the long and short diameters of the tumor, respectively. The growth inhibition effect of the compounds on tumor tissue was evaluated by tumor growth inhibition rate TGI (%). […] The data of the administration group and the negative control group were taken on the same day.
(§6) d, During the experiment, the living conditions of the mice, including appearance signs, general behavior, mental state, food intake, respiratory state, feces and urine characteristics, local injection site and other toxicity manifestations, were closely observed.
(§7) e, After the experiment reached the end point, the mice were euthanized, and the animal carcasses were frozen in a freezer and handed over to a qualified medical waste disposal unit for disposal.

[2] = molecular target: Ba/F3 L858R/T790M/C797S EGFR triple mutant cell line (Homo sapiens, UniProt P00533, T790M/C797S/L858R, cells depend on it); assay: Cell proliferation inhibition experiment (CellTiter-Glo), Ba/F3 L858R/T790M/C797S; assay type: cell-based; details: 72 hours, Cell Titer-Glo, read-out: Ba/F3 (L858R/T790M/C797S) IC50
Sequence of Ba/F3 L858R/T790M/C797S EGFR triple mutant cell line (P00533 whole entry T790M/C797S/L858R): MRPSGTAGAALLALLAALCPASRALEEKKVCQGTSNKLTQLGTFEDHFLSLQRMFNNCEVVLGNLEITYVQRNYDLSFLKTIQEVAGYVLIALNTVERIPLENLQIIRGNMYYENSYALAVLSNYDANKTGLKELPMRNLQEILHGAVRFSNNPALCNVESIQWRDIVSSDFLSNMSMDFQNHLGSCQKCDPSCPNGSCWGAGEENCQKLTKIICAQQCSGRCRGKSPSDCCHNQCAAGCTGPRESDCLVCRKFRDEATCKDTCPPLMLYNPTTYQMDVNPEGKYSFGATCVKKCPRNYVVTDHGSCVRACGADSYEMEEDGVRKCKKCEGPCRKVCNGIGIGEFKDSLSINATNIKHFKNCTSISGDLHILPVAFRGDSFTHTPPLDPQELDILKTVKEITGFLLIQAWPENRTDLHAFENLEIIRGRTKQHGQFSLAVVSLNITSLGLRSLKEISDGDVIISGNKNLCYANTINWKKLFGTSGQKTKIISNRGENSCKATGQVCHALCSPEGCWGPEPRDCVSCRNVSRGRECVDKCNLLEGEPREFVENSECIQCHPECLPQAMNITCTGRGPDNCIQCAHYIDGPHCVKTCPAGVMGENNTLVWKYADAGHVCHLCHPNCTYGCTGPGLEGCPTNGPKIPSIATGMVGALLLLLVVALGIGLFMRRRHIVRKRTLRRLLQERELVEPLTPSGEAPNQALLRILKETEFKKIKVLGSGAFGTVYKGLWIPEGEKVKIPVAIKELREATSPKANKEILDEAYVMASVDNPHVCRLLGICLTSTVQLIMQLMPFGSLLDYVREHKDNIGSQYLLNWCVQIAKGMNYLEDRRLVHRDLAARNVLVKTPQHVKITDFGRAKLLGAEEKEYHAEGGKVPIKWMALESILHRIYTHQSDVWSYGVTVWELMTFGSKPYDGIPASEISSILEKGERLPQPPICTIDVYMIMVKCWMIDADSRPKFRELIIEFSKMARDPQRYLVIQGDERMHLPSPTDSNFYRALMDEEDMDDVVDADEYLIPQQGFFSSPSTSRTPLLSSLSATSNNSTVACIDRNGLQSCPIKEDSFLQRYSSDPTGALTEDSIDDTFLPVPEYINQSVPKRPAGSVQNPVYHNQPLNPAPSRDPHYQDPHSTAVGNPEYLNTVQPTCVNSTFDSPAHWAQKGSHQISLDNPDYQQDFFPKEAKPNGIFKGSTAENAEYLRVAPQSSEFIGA

[3] = molecular target: T1, L858R/T790M/C797S triple mutant EGFR (Homo sapiens, UniProt P00533, C797S/L858R/T790M); assay: Enzymology experiment in vitro (HTRF/FRET kinase activity), L858R/T790M/C797S triple mutant EGFR; assay type: biochemical; details: HTRF KinEASE-TK, read-out: EGFR (L858R/T790M/C797S) IC50
T1 construct: purchased Signalchem
T1 sequence (P00533 25-1210 T790M/C797S/L858R): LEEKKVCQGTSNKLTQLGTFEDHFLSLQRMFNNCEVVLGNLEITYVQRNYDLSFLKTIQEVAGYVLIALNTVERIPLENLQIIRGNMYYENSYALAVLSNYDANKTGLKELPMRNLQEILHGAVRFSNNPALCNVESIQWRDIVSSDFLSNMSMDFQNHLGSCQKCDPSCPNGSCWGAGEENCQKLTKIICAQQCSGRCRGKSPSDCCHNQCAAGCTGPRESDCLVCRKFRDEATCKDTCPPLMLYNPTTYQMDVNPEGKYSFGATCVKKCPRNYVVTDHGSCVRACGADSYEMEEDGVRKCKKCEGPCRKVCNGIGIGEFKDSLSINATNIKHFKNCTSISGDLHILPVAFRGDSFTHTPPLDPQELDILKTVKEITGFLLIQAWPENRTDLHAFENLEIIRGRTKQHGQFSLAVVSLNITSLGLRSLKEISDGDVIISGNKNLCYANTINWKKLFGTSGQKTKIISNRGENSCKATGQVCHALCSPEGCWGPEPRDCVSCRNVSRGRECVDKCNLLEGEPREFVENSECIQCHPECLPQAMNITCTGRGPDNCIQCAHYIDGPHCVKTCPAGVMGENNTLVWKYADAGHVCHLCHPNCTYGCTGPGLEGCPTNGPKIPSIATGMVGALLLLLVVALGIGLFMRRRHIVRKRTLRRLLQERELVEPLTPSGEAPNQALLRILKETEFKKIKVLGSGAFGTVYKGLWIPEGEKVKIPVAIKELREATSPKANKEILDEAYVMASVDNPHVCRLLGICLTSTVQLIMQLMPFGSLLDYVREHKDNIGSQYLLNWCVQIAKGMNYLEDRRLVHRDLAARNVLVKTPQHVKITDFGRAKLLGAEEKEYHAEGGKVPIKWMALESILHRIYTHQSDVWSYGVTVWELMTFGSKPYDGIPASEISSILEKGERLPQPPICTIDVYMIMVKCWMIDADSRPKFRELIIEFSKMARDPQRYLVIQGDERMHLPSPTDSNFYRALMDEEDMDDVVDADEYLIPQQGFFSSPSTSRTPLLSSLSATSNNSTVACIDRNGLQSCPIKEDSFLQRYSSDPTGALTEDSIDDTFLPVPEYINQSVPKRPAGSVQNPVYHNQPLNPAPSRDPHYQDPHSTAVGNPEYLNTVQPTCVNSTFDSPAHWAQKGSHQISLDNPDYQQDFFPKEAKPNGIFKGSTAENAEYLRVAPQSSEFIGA
Outline: (§8)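 Kinase reaction run 40 min at room temperature with peptide and ATP after a 10 min compound–enzyme preincubation. Phosphorylation read as HTRF signal after 1 h with Eu³⁺ antibody, XL665-streptavidin and EDTA (Cisbio KinEASE-TK).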

[4] = system: EGFR wild-type cell line A431; assay: Cell proliferation inhibition experiment (CellTiter-Glo), A431; assay type: cell-based; details: Homo sapiens, A-431, 72 h, A431 cells, Cell Titer-Glo, read-out: A431 EGFR WT IC50
Outline: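 Luminescent CellTiter-Glo readout, 30 min at room temperature, after 72 h compound exposure at 37° C., 5% CO2 with 0.1% DMSO final. EGFR wild-type A431 cells were seeded at 800 per well and grown 24 h before dosing. IC50 derived from the dose-response.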

wild-type EGFR = molecular target: T2, wild-type EGFR (Homo sapiens, UniProt P00533); assay: Enzymology experiment in vitro (HTRF/FRET kinase activity), wild-type EGFR; assay type: biochemical; details: HTRF KinEASE-TK, read-out: EGFR (WT) IC50
T2 construct: purchased Signalchem
T2 sequence (P00533 25-1210): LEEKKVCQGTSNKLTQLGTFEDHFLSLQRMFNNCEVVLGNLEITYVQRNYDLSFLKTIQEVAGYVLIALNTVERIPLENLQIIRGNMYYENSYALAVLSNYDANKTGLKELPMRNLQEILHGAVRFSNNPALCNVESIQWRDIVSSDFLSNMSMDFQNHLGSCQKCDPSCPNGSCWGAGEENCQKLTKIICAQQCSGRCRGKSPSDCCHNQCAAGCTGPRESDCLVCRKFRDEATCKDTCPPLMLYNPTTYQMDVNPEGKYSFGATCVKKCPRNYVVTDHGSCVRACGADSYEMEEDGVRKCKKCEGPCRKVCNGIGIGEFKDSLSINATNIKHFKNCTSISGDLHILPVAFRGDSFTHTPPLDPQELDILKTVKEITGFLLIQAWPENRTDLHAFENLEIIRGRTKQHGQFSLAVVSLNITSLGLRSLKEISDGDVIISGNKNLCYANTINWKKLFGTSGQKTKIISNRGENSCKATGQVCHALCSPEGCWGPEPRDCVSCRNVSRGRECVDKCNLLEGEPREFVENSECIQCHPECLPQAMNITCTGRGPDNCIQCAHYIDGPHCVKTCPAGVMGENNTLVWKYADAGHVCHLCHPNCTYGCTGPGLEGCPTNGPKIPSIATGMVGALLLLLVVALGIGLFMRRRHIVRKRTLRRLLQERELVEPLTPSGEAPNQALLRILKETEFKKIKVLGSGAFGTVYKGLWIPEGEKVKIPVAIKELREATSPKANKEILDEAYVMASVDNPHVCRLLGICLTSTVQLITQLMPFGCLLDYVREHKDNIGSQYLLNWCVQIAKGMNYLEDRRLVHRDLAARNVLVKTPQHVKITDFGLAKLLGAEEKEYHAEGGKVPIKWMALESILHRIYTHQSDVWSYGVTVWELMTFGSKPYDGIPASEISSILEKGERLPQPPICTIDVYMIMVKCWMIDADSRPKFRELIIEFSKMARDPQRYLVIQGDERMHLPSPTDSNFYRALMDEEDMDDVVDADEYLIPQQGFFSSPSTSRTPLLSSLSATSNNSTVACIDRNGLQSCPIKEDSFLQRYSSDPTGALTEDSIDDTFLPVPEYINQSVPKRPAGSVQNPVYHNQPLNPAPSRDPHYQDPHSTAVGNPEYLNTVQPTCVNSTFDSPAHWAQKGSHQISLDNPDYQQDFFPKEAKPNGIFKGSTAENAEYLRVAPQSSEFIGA
Outline: as §8

[5] = molecular target: Ba/F3 De119/T790M/C797S EGFR triple mutant cell line (Homo sapiens, UniProt P00533, T790M/C797S, cells depend on it, form not given); assay: Cell proliferation inhibition experiment (CellTiter-Glo), Ba/F3 De119/T790M/C797S; assay type: cell-based; details: Ba/F3 Del19/T790M/C797S EGFR triple mutant cells, 72 hours, Cell Titer-Glo; read-out: Ba/F3 (Del19/T790M/C797S) IC50
Sequence of Ba/F3 De119/T790M/C797S EGFR triple mutant cell line (P00533 with tags, fused parts or gaps DEL746-750/T790M/C797S, form open): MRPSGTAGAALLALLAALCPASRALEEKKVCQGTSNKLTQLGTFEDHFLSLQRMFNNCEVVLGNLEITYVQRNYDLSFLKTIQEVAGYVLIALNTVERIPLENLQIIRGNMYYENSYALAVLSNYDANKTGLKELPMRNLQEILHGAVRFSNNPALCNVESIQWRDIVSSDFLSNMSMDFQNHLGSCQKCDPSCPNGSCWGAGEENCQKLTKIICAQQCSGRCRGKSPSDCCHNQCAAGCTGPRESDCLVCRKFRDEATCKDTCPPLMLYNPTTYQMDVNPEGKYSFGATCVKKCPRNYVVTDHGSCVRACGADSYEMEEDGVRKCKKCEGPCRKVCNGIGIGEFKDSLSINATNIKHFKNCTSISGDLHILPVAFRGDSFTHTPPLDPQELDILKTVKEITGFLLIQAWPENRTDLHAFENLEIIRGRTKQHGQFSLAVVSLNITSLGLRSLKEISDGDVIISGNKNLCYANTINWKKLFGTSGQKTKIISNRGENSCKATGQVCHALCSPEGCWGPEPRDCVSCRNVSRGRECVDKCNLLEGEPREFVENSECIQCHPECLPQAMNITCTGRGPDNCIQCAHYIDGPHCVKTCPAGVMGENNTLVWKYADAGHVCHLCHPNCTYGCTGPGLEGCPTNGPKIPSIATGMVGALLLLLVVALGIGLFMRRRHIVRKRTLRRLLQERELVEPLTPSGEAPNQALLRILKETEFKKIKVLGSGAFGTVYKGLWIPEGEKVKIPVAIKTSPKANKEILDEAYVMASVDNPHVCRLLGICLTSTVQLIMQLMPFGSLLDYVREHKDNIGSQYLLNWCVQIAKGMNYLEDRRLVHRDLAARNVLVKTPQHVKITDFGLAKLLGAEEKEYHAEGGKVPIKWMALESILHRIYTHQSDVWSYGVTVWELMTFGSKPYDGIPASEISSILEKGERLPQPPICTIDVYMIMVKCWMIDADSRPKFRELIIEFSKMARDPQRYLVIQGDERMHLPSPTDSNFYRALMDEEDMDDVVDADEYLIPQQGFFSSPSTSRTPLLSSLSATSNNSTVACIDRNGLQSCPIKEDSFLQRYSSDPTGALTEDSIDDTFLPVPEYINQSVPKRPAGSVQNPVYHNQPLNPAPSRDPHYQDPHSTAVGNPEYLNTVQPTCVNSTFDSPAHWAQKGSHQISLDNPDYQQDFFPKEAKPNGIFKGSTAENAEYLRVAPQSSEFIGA

[6] = system: PC9 (De119/T790M/C797S) nude mice xenograft model; assay: In vivo efficacy research experiment A (compound 242); design: species or system BALB/c-nu mice; details: for Tumor volume (mm^3): mean ± standard error
Procedure: To evaluate the antitumor activity and toxic side effects of compound 242 orally administered for 21 days in PC9 (De119/T790M/C797S) nude mice xenograft model.
as §1, §2, §3
Under sterile conditions, PC9 (De119/T790M/C797S) cell suspension cultured in vitro was taken, the cell concentration was adjusted to 5×10^7 cells /mL after centrifugation, and subcutaneously inoculated under the right armpit of mice (0.1 mL/ mouse). The day of inoculation was set as day 0.
a, When the average tumor volume was about 180 mm^3, 24 mice with moderate tumor volume were selected and randomly divided into 3 groups according to the tumor volume: G1: solvent control group, G2: compound 242 (25 mg/kg) and G3: compound 242 (75/50 mg/kg), 8 mice/group.
as §4, §5, §6, §7

[7] = 15 mg/kg po once a day for 21 days
[8] = 40 mg/kg po once a day for 21 days
[9] = 25 mg/kg po once a day for 21 days
[10] = 75 (D1-D6), 50 (D7-D21) mg/kg po once a day

SMILES | GI50 [2] [nM] | IC50 [3] [nM] | IC50 [4] [nM] | IC50 (wild-type EGFR) [nM] | GI50 [5] [nM] | further results
COc1cc(N2CCC3(CC2)CCN(C(C)(C)CF)CC3)c(-c2cnn(C)c2)cc1Nc1ncc(Br)c(Nc2ccc3nccnc3c2P(C)(C)=O)n1 [compound 243, (6-((5-Bromo-2-((4-(9-(1-fluoro-2-methylpropan-2-yl)-3,9-diazaspiro[5.5]undecan-3-yl)-2-methoxy-5-(1-methyl-1H-pyrazol-4-yl)phenyl)amino)pyrimidin-4-yl)amino)quinoxalin-5-yl)dimethylphosphine oxide] | 3.95 | 0.54 | 141 | 4.91 | 1.73 | TGI [1, 7]: 81.4%; Weight change [1, 7]: −0.4%; Tumor volume (mean ± standard error) [1, 7]: 318.6 ± 38.63** mm^3; TGI [1, 8]: 110.1%; Weight change [1, 8]: −6.1%; Tumor volume (mean ± standard error) [1, 8]: 38.6 ± 5.19** mm^3; tolerability of mice ([1]; 15, 40 mg/kg): well tolerated; tumor growth inhibition (in words) ([1]; 15, 40 mg/kg po once a day for 21 days): significantly inhibit tumor growth
COc1cc(N2CCC3(CCN(CC4(F)CC4)CC3)CC2)c(-c2cnn(C)c2)cc1Nc1ncc(Br)c(Nc2ccc3nccnc3c2P(C)(C)=O)n1 [compound 242, (6-((5-Bromo-2-((4-(9-((1-fluorocyclopropyl)methyl)-3,9-diazaspiro[5.5]undecan-3yl)-2-methoxy-5-(1-methyl-1H-pyrazol-4-yl)phenyl)amino)pyrimidin-4-yl)amino)quinoxalin-5-yl)dimethylphosphine oxide] | 3.07 | 0.4 | 75.7 | 2.4 | 1.36 | tolerability of mice ([6]; 25 mg/kg and 50 mg/kg doses): well tolerated; TGI (%) [6, 9]: 102%; Weight change (%) [6, 9]: 2.4%; Tumor volume (mm^3) [6, 9]: 139.8 ± 13.7** mm^3; tumor growth inhibition (in words) ([6]; 25, 75/50 mg/kg): significantly inhibit tumor growth; TGI (%) [6, 10]: 105%; Weight change (%) [6, 10]: −3.4%; Tumor volume (mm^3) [6, 10]: 64.0 ± 11.9** mm^3
COc1cc(N2CCC3(CC2)CN(C)CCO3)c(-c2cnn(C)c2)cc1Nc1ncc(Br)c(Nc2ccc3nccnc3c2P(C)(C)=O)n1 [compound 144, (6-((5-bromo-2-((2-methoxy-5-(1-methyl-1H-pyrazol-4-yl)-4-(4-methyl-1-oxa-4,9-diazaspiro[5.5]undecan-9-yl)phenyl)amino)pyrimidin-4-yl)amino)quinoxalin-5-yl)dimethylphosphine oxide] | 1.91 | 0.66 | 84 | 2.77 | 0.35 | –
Cn1cc(-c2cc3c(c(Nc4ncc(Br)c(Nc5ccc6nccnc6c5P(C)(C)=O)n4)c2)OCC3)cn1 [compound 39] | 9.69 | 0.06 | 41.3 | 7.45 | 4.07 | –
COc1cc(N2CCC(N3CCN(C)C(C)C3)CC2)c(-c2cnn(C)c2)cc1Nc1ncc(Br)c(Nc2ccc3nccnc3c2P(C)(C)=O)n1 (centres unmarked) [compound 193] | 9.83 | 0.27 | 59.9 | 0.99 | 4.48 | –
